Data taken from the NIST ThermoML archive (doi:10.1016/j.jct.2013.08.021).
Numbers after ± are expanded uncertainties.

How the values were obtained:
[1] = molar heat capacity at constant pressure; conditions: 101 kPa, Liquid, Small sample (50 mg) DSC
[2] = refractive index (Na D-line) (dimensionless); conditions: 101 kPa, Liquid, Standard Abbe refractometry
[3] = refractive index (Na D-line) (dimensionless); xn = mol fraction of the nth substance listed; conditions: 101 kPa, Liquid, Standard Abbe refractometry
[4] = xn = mol fraction of the nth substance listed; conditions: 101 kPa, Liquid; for speed of sound: Sing-around technique in a fixed-path interferometer; for mass density: Vibrating tube method

CCC[N+]1(C)CCCC1.O=S(=O)([N-]S(=O)(=O)C(F)(F)F)C(F)(F)F
Conditions	molar heat capacity at constant pressure, [1] [J/K/mol]	refractive index, [2]
293.15 K	–	1.42208 ± 0.00037
298.15 K	–	1.42069 ± 0.00037
303.15 K	–	1.41928 ± 0.00037
308.15 K	–	1.41787 ± 0.00037
313.15 K	541 ± 24	1.41644 ± 0.00037
314.15 K	544 ± 24	–
315.15 K	548 ± 24	–
316.15 K	551 ± 24	–
317.15 K	554 ± 24	–
318.15 K	556 ± 24	1.415 ± 0.00037
319.15 K	559 ± 24	–
320.15 K	561 ± 24	–
321.15 K	563 ± 24	–
322.15 K	565 ± 24	–
323.15 K	567 ± 24	1.41354 ± 0.00037
324.15 K	569 ± 24	–
325.15 K	571 ± 25	–
326.15 K	573 ± 25	–
327.15 K	575 ± 25	–
328.15 K	576 ± 25	1.41212 ± 0.00037
329.15 K	578 ± 25	–
330.15 K	579 ± 25	–
331.15 K	581 ± 25	–
332.15 K	582 ± 25	–
333.15 K	584 ± 25	1.41073 ± 0.00037
334.15 K	585 ± 25	–
335.15 K	586 ± 25	–
336.15 K	588 ± 25	–
337.15 K	589 ± 25	–
338.15 K	590 ± 25	1.40932 ± 0.00037
339.15 K	591 ± 25	–
340.15 K	593 ± 25	–
341.15 K	594 ± 25	–
342.15 K	595 ± 25	–
343.15 K	597 ± 25	1.40796 ± 0.00037
344.15 K	598 ± 25	–
345.15 K	599 ± 25	–
346.15 K	600 ± 26	–
347.15 K	601 ± 26	–
348.15 K	601 ± 26	–
349.15 K	602 ± 26	–
350.15 K	604 ± 26	–
351.15 K	604 ± 26	–
352.15 K	605 ± 26	–
353.15 K	606 ± 26	–

CCC[N+]1(C)CCCC1.O=S(=O)([N-]S(=O)(=O)C(F)(F)F)C(F)(F)F + CCCO
Conditions	mass density, 298.15 K [kg/m3]	mass density, 303.15 K [kg/m3]	mass density, 308.15 K [kg/m3]	refractive index, 298.15 K	refractive index, 303.15 K	refractive index, 308.15 K	speed of sound, 298.15 K [m/s]	speed of sound, 303.15 K [m/s]	speed of sound, 308.15 K [m/s]
[3], x2 = 0	–	–	–	1.42064 ± 0.00037	1.41926 ± 0.00037	1.41782 ± 0.00037	–	–	–
[3], x2 = 0.0938	–	–	–	1.41963 ± 0.00036	1.41825 ± 0.00036	1.41678 ± 0.00036	–	–	–
[3], x2 = 0.1942	–	–	–	1.41841 ± 0.00035	1.41693 ± 0.00035	1.4155 ± 0.00035	–	–	–
[3], x2 = 0.3092	–	–	–	1.41669 ± 0.00034	1.41521 ± 0.00034	1.41375 ± 0.00034	–	–	–
[3], x2 = 0.3925	–	–	–	1.41523 ± 0.00034	1.41377 ± 0.00034	1.41227 ± 0.00034	–	–	–
[3], x2 = 0.5031	–	–	–	1.41287 ± 0.00033	1.41135 ± 0.00033	1.40984 ± 0.00033	–	–	–
[3], x2 = 0.6035	–	–	–	1.41013 ± 0.00032	1.40858 ± 0.00032	1.40703 ± 0.00032	–	–	–
[3], x2 = 0.6084	–	–	–	1.40996 ± 0.00032	1.40837 ± 0.00032	1.40681 ± 0.00032	–	–	–
[3], x2 = 0.6973	–	–	–	1.40685 ± 0.00032	1.40519 ± 0.00032	1.40364 ± 0.00032	–	–	–
[3], x2 = 0.8048	–	–	–	1.40163 ± 0.00031	1.40019 ± 0.00032	1.39885 ± 0.00032	–	–	–
[3], x2 = 0.8994	–	–	–	1.39494 ± 0.00031	1.39356 ± 0.00031	1.39205 ± 0.00031	–	–	–
[3], x2 = 0.9465	–	–	–	1.39023 ± 0.00031	1.38843 ± 0.00031	1.38653 ± 0.00031	–	–	–
[4], x2 = 0	1427.86 ± 0.6	1423.26 ± 0.6	1418.83 ± 0.59	–	–	–	1270.6 ± 1.5	1259.5 ± 1.5	1248.6 ± 1.5
[4], x2 = 0.0938	1411.16 ± 0.52	1406.64 ± 0.52	1402.12 ± 0.52	–	–	–	1265.5 ± 1.5	1254.3 ± 1.5	1243.4 ± 1.5
[4], x2 = 0.1942	1390.36 ± 0.45	1385.82 ± 0.44	1381.28 ± 0.44	–	–	–	1259.2 ± 1.4	1248 ± 1.4	1236.8 ± 1.4
[4], x2 = 0.3092	1361.8 ± 0.37	1357.24 ± 0.36	1352.68 ± 0.36	–	–	–	1250.8 ± 1.4	1239.4 ± 1.4	1228.1 ± 1.4
[4], x2 = 0.3925	1336.96 ± 0.32	1332.37 ± 0.31	1327.8 ± 0.31	–	–	–	1243.8 ± 1.3	1232.2 ± 1.3	1220.8 ± 1.3
[4], x2 = 0.5031	1296.59 ± 0.26	1291.99 ± 0.26	1287.39 ± 0.26	–	–	–	1233 ± 1.3	1221.2 ± 1.3	1209.4 ± 1.3
[4], x2 = 0.6035	1249.57 ± 0.23	1244.97 ± 0.23	1240.35 ± 0.23	–	–	–	1221.4 ± 1.2	1209.3 ± 1.2	1197.2 ± 1.2
[4], x2 = 0.6084	1246.93 ± 0.23	1242.32 ± 0.23	1237.71 ± 0.22	–	–	–	1220.8 ± 1.2	1208.7 ± 1.2	1196.6 ± 1.2
[4], x2 = 0.6973	1192.26 ± 0.22	1187.68 ± 0.22	1183.08 ± 0.22	–	–	–	1209.2 ± 1.2	1196.7 ± 1.2	1184.2 ± 1.2
[4], x2 = 0.8048	1102.79 ± 0.24	1098.29 ± 0.24	1093.76 ± 0.25	–	–	–	1194.6 ± 1.2	1181.5 ± 1.2	1168.3 ± 1.2
[4], x2 = 0.8994	988.76 ± 0.29	984.42 ± 0.28	980.03 ± 0.29	–	–	–	1187.7 ± 1.2	1173.4 ± 1.2	1159.1 ± 1.2
[4], x2 = 0.9465	912.36 ± 0.39	908.13 ± 0.4	903.87 ± 0.4	–	–	–	1192 ± 1.2	1176.5 ± 1.2	1161.2 ± 1.2
